# From BindingDB's records for doi:10.1038/sj.bjp.0701860 (Universit&Aagrove, 1998)
# Target: Melatonin receptor type 1A (Homo sapiens, UniProt P48039)
# Sequence (P48039 whole entry): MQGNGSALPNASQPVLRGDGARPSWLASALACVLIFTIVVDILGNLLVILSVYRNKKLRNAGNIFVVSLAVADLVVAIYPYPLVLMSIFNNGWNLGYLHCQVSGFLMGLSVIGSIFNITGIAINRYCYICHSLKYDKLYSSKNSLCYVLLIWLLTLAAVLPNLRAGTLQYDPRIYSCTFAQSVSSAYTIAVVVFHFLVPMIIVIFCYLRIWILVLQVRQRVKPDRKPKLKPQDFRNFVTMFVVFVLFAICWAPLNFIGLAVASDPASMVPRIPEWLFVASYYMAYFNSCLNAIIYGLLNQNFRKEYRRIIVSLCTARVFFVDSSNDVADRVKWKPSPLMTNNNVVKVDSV
row,Compound,Ki [nM]
1,"COc1ccc2[nH]c(-c3ccccc3)c(CCNC(C)=O)c2c1 [Melatonin,2-Phenyl]",0.02
2,CC(=O)n1cc(CCN)c2cc(O)ccc21 [NSC_260803],484
